According to patent publication US20240238317A1, “METHODS FOR REDUCING INTRAOCULAR PRESSURE” (UNIVERSITY OF MISSISSIPPI, priority 2021, published 2024):
Several values for one entry are separate records, joined by “and”; a condition that tells them apart may be missing. Equal values may be shown once.

What was measured:
[1] = system: IOP in test eye of DB rabbits; assay: Single treatment multiple day application study: IOP lowering after topical administration of one formulation (QD, 5 days); type: in vivo, pigmented (Dutch Belted; DB) rabbits; parameters: Test eye IOP: unit not given here; conditions: for Drop in IOP: test eye
Source text: The rabbits were split into three groups.
The IOP profile following multi-day (QD, 5 days) exposure to a single formulation, in pigmented DB rabbits, is presented in FIGS. 1-26.

[2] = system: IOP in test eye of DB rabbits; assay: Combination dose multiple day application study: IOP lowering after topical co-administration of two formulations (second 15 minutes after first)
IOP = conditions: topical application; cited from earlier work
[3] = Average of days 1, 3, 5, 30 min
[4] = Average of days 1, 3, 5, 60 min
[5] = Average of days 1, 3, 5, 90 min
[6] = Average of days 1, 3, 5, 120 min
[7] = Average of days 1, 3, 5, 150 min
[8] = Average of days 1, 3, 5, 180 min
[9] = Average of days 1, 3, 5, 240 min
[10] = Average of days 1, 3, 5, 300 min
[11] = Average of days 1, 3, 5, 360 min
[12] = Average of days 1, 3, 5, 420 min
[13] = Average of days 1, 3, 5, 480 min
[14] = Average of days 1, 3, 5, 540 min
[15] = Average of days 1, 3, 5, 1440 min

## CC(C)OC(=O)CCC/C=C\C[C@@H]1[C@@H](CC[C@@H](O)CCc2ccccc2)[C@H](O)C[C@@H]1O [Latanoprost]
[1]; Average of days 1, 3, 5, 0 min
  Test eye IOP: 24.6
  Drop in IOP: 0.0%
[1]; [3]
  Test eye IOP: 20.1
  Drop in IOP: −18.3%
[1]; [4]
  Test eye IOP: 19.6
  Drop in IOP: −20.3%
[1]; [5]
  Test eye IOP: 19.5
  Drop in IOP: −20.5%
[1]; [6]
  Test eye IOP: 19.7
  Drop in IOP: −19.8%
[1]; [7]
  Test eye IOP: 19.6
  Drop in IOP: −20.5%
[1]; [8]
  Test eye IOP: 20.0
  Drop in IOP: −18.7%
[1]; [9]
  Test eye IOP: 19.5
  Drop in IOP: −20.6%
[1]; [10]
  Test eye IOP: 19.7
  Drop in IOP: −21.7%
[1]; [11]
  Test eye IOP: 19.9
  Drop in IOP: −19.1%
[1]; [12]
  Test eye IOP: 21.0
  Drop in IOP: −14.5%
[1]; [13]
  Test eye IOP: 23.9
  Drop in IOP: −2.9%
[1]; [14]
  Test eye IOP: 24.8
  Drop in IOP: 0.7%
[1]; [15]
  Test eye IOP: 24.4
  Drop in IOP: −2.2%
[1]; Day 1, 0 min
  Test eye IOP: 25.2
  Drop in IOP: 0.0%
[1]; Day 1, 30 min
  Test eye IOP: 20.0
  Drop in IOP: −20.5%
[1]; Day 1, 60 min
  Test eye IOP: 19.6
  Drop in IOP: −21.9%
[1]; Day 1, 90 min
  Test eye IOP: 19.2
  Drop in IOP: −23.7%
[1]; Day 1, 120 min
  Test eye IOP: 19.8
  Drop in IOP: −21.3%
[1]; Day 1, 150 min
  Test eye IOP: 19.4
  Drop in IOP: −22.9%
[1]; Day 1, 180 min
  Test eye IOP: 20.2
  Drop in IOP: −19.7%
[1]; Day 1, 240 min
  Test eye IOP: 19.7
  Drop in IOP: −21.8%
[1]; Day 1, 300 min
  Test eye IOP: 19.7
  Drop in IOP: −21.7%
[1]; Day 1, 360 min
  Test eye IOP: 19.7
  Drop in IOP: −21.7%
[1]; Day 1, 420 min
  Test eye IOP: 20.9
  Drop in IOP: −16.8%
[1]; Day 1, 480 min
  Test eye IOP: 23.8
  Drop in IOP: −5.4%
[1]; Day 1, 540 min
  Test eye IOP: 25.2
  Drop in IOP: 0.3%
[1]; Day 1, 1440 min
  Test eye IOP: 24.4
  Drop in IOP: −3.0%
[1]; Day 3, 0 min
  Test eye IOP: 24.6
  Drop in IOP: 0.0%
[1]; Day 3, 30 min
  Test eye IOP: 19.8
  Drop in IOP: −19.4%
[1]; Day 3, 60 min
  Test eye IOP: 19.5
  Drop in IOP: −20.7%
[1]; Day 3, 90 min
  Test eye IOP: 19.8
  Drop in IOP: −19.6%
[1]; Day 3, 120 min
  Test eye IOP: 19.6
  Drop in IOP: −20.3%
[1]; Day 3, 150 min
  Test eye IOP: 19.6
  Drop in IOP: −20.3%
[1]; Day 3, 180 min
  Test eye IOP: 20.0
  Drop in IOP: −18.7%
[1]; Day 3, 240 min
  Test eye IOP: 19.6
  Drop in IOP: −20.5%
[1]; Day 3, 360 min
  Test eye IOP: 19.6
  Drop in IOP: −20.3%
[1]; Day 3, 420 min
  Test eye IOP: 21.0
  Drop in IOP: −14.7%
[1]; Day 3, 480 min
  Test eye IOP: 23.7
  Drop in IOP: −3.6%
[1]; Day 3, 540 min
  Test eye IOP: 24.5
  Drop in IOP: −0.4%
[1]; Day 3, 1440 min
  Test eye IOP: 24.2
  Drop in IOP: −3.6%
[1]; Day 5, 0 min
  Test eye IOP: 24.1
  Drop in IOP: 0.0%
[1]; Day 5, 30 min
  Test eye IOP: 20.4
  Drop in IOP: −15.2%
[1]; Day 5, 60 min
  Test eye IOP: 19.7
  Drop in IOP: −18.2%
[1]; Day 5, 90 min
  Test eye IOP: 19.7
  Drop in IOP: −18.2%
[1]; Day 5, 120 min
  Test eye IOP: 19.8
  Drop in IOP: −17.8%
[1]; Day 5, 150 min
  Test eye IOP: 19.7
  Drop in IOP: −18.2%
[1]; Day 5, 180 min
  Test eye IOP: 19.8
  Drop in IOP: −17.5%
[1]; Day 5, 240 min
  Test eye IOP: 19.3
  Drop in IOP: −19.6%
[1]; Day 5, 360 min
  Test eye IOP: 20.3
  Drop in IOP: −15.4%
[1]; Day 5, 420 min
  Test eye IOP: 21.2
  Drop in IOP: −12.0%
[1]; Day 5, 480 min
  Test eye IOP: 24.1
  Drop in IOP: 0.3%
[1]; Day 5, 540 min
  Test eye IOP: 24.6
  Drop in IOP: 2.1%
[1]; Day 5, 1440 min
  Test eye IOP: 24.7
  Drop in IOP: 0.0%
[1]; single formulation
  IOP returned to baseline (time): ≤ 480 min
[1]; single formulation, QD, 5 days
  average max drop in IOP: about 21.3+2.1%
[1]; single formulation, Day 1
  Max IOP drop (%): −23.7%
  Max IOP drop (mmHg): 6.0 mmHg and 6 mmHg
  Time of max IOP drop (%): 90 min
  Time of max IOP drop (mmHg): 90 min
[1]; single formulation, Day 3
  Max IOP drop (%): −20.7%
  Max IOP drop (mmHg): 5.1 mmHg
  Time of max IOP drop (%): 60 min
  Time of max IOP drop (mmHg): 60 min
[1]; single formulation, Day 5
  Max IOP drop (%): −19.6%
  Max IOP drop (mmHg): 4.7 mmHg
  Time of max IOP drop (%): 240 min
  Time of max IOP drop (mmHg): 240 min
[1]; single formulation, day 1
  time to max drop in IOP: 60 min
[1]; single formulation, day 3
  time to max drop in IOP: 90 min
[1]; single formulation, day 5
  time to max drop in IOP: 240 min
[1]; single formulation, from 30 to 420 mins
  maintained average drop in IOP: 19.4 ± 1.9%
[2]
  comparison of IOP lowering of combinations with single treatments: decreased the efficacy of both THC-VHS-NEC and Rhopressa® when combined

## CCCCCc1cc(O)c2c(c1)OC(C)(C)[C@@H]1CCC(C)=C[C@@H]21 [THC, Delta-9-tetrahydrocannabinol]
IOP
  effect on IOP: no effect on IOP
